Laboratory results as given in patent publication US20100145266A1, “METHOD FOR LOADING STRUCTURED SURFACES” (priority 2007, published 2010).

Tests used:
[1] = Stability of paclitaxel depending on pH; format: physicochemical
[2] = physchem
Procedure: Preferably 1 mg-150 mg, more preferably 10 mg to 90 mg and most preferably 40 mg to 60 mg of paclitaxel are dissolved in one ml of DMSO.

stability at alkaline pH ([1]; alkaline pH): comparatively instable
stability at a pH between 3 and 5 ([1]; pH between 3 and 5): especially stable
solubility in anhydrous ethanol [2]: highly soluble
solubility in dimethyl sulfoxide (DMSO) [2]: highly soluble
solubility in methanol [2]: highly soluble
solubility ([2]; organic solvent or mixture): ≤ 150 mg/mL
SMILES: CC(=O)O[C@H]1C(=O)[C@@]2(C)[C@H]([C@H](OC(=O)c3ccccc3)[C@]3(O)C[C@H](OC(=O)[C@H](O)[C@@H](NC(=O)c4ccccc4)c4ccccc4)C(C)=C1C3(C)C)[C@]1(OC(C)=O)CO[C@@H]1C[C@@H]2O (relative stereo) [paclitaxel, [2aR-[2a,4,4a,6,9(R*,S*),11,12,12a,12b]]-(benzoylamino)-hydroxybenzene propionic acid 6,12b-bis-(acetyloxy)-12-(benzoyloxy)-2a-3,4,4a,5,6,9,10,11,12,12a,12b-dodecahydro-4,11-dihydroxy-4a,8,13,13-tetramethyl-5-oxo-7,11-methano-1H-cyclodeca[3,4]benz[1,2-b]oxet-9-yl ester)]
